Assay results taken from PubChem BioAssay (NCI).
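Grown in 96-well plates, cells were treated for 48 hours with each compound at five concentrations. Insufficient inhibition: endpoint recorded as highest concentration tested. TGI marks complete inhibition of growth.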

Test system: CCRF-CEM leukemia
Assay: growth of human tumour cells (NCI), 48 h

SMILES	TGI [µM]
COC1=C(OC)C(=O)C(Cc2c(C)nc3sccn23)=C(C)C1=O	23.8
CCOc1ncn(-c2ccc(NC(=S)NC3OC(CO)C(O)C(O)C3O)cc2)n1 (stereo unspecified)	> 100
Cn1c(O)c(C(=O)NC2CCCCC2)c(=O)n(C)c1=S	> 100
CC(C)=C[C@H]1CCC2(OCCO2)[C@]1(C)COCc1ccccc1	34.5
CC1(C)C[C@@H]2C1CCC1(C)CC2(O)CC[C@H]1O (stereo partly specified)	> 100
c1ccc(CNc2nncc3[nH]cnc23)cc1	> 100
Nc1nc([O-])c2c(n1)[n+](C1OC(CO)C(O)C1O)cn2CCO (stereo unspecified)	> 100
CC(CC[C@@]1(C)C(=O)CCC2O[C@]21C)[C@H]1C[C@@H](c2ccoc2)OC1=O (stereo partly specified)	61.3
O=Cc1ccccc1COC(=O)c1cc(C(=O)OCc2ccccc2C=O)c(C(=O)OCc2ccccc2C=O)cc1C(=O)OCc1ccccc1C=O	> 100
O=C1NC(=S)NC(=O)C1C(c1ccc(O)cc1)C1C(=O)NC(=S)NC1=O	> 100
CN(C)CC1CCCC(CN(C)C)C1OC(=O)c1ccccc1 (stereo unspecified)	> 100
Cc1cc(N(CCC#N)CCC#N)ccc1/C=C(\NC(=O)/C=C/c1ccccc1)C(N)=O	> 100
CN=C(SC)N(C)c1nc(=[N+](C)C)ss1	> 100
CCN(CC)CCSc1c2cc(OC)ccc2nc2ccc(OC)cc12	> 22.6
CCOC(=O)c1ccc(NCc2ccc3oc(=O)c(-c4ccccc4)nc3c2)cc1	22.6
CC(C)=CCC(O)[C@](C)(O)[C@H]1[C@H](O)C[C@@]2(C)[C@@H]3CCc4cc(O)c(OC5OC(CO)C(O)C(O)C5O)cc4C3(C)C(=O)C[C@]12C (stereo partly specified)	> 100
C[Si](C)(C)OC1CC(=O)OC1n1cc(F)c(=O)[nH]c1=O (stereo unspecified)	> 96.4

Test system: SN12C renal
Assay: growth of human tumour cells (NCI), 48 h

SMILES	TGI [µM]
O=c1cc(-c2ccc(Oc3ccccc3)cc2)[nH]c2cc3c(cc12)OCO3	> 100
CC(C)=C[C@H]1CCC2(OCCO2)[C@]1(C)CO	> 100
O=C(/C=C/c1ccc2ccccc2c1)NCc1ccc(C(=O)NCCc2ccccc2)cc1	> 100
CCOC(=O)CC(C)C1(C(=O)OCC)CCCCC1=O (stereo unspecified)	> 100
Nc1nc(-[n+]2ccc(-c3ccncc3)cc2)nc(Cl)c1Cl	42.5
CC(=O)O[C@H]1C(=O)[C@@]2(C)C(C(OC(=O)c3ccccc3)[C@]3(O)CC(OC(=O)C(O)C(NC(=O)c4ccc(C(F)(F)F)cc4)c4ccccc4)C(C)=C1C3(C)C)[C@]1(OC(C)=O)CO[C@@H]1C[C@@H]2O (stereo partly specified)	11.6
COC(=O)CC1N=C(NC#N)N(CCc2c[nH]c3ccccc23)C1=O (stereo unspecified)	> 100
COC1=C(OC)C(=O)C(Cc2c(C)nc3sccn23)=C(C)C1=O	31
CCOc1ncn(-c2ccc(NC(=S)NC3OC(CO)C(O)C(O)C3O)cc2)n1 (stereo unspecified)	> 100
Cn1c(O)c(C(=O)NC2CCCCC2)c(=O)n(C)c1=S	59.9
CC(C)=C[C@H]1CCC2(OCCO2)[C@]1(C)COCc1ccccc1	68.5
CC1(C)C[C@@H]2C1CCC1(C)CC2(O)CC[C@H]1O (stereo partly specified)	> 100
c1ccc(CNc2nncc3[nH]cnc23)cc1	> 100
Nc1nc([O-])c2c(n1)[n+](C1OC(CO)C(O)C1O)cn2CCO (stereo unspecified)	> 100
CC(CC[C@@]1(C)C(=O)CCC2O[C@]21C)[C@H]1C[C@@H](c2ccoc2)OC1=O (stereo partly specified)	79.9
O=Cc1ccccc1COC(=O)c1cc(C(=O)OCc2ccccc2C=O)c(C(=O)OCc2ccccc2C=O)cc1C(=O)OCc1ccccc1C=O	> 100
CCOC1=NC(O)c2cccn2-c2sccc21 (stereo unspecified)	> 100
O=C1NC(=S)NC(=O)C1C(c1ccc(O)cc1)C1C(=O)NC(=S)NC1=O	> 100
N#C/C(=C/NC(N)=S)C(N)=O	> 100
CN(C)CC1CCCC(CN(C)C)C1OC(=O)c1ccccc1 (stereo unspecified)	> 100
Cc1cc(N(CCC#N)CCC#N)ccc1/C=C(\NC(=O)/C=C/c1ccccc1)C(N)=O	> 100
CN=C(SC)N(C)c1nc(=[N+](C)C)ss1	> 100
CCN(CC)CCSc1c2cc(OC)ccc2nc2ccc(OC)cc12	9.75
CCOC(=O)c1ccc(NCc2ccc3oc(=O)c(-c4ccccc4)nc3c2)cc1	> 100
CC(C)=CCC(O)[C@](C)(O)[C@H]1[C@H](O)C[C@@]2(C)[C@@H]3CCc4cc(O)c(OC5OC(CO)C(O)C(O)C5O)cc4C3(C)C(=O)C[C@]12C (stereo partly specified)	> 100
C[Si](C)(C)OC1CC(=O)OC1n1cc(F)c(=O)[nH]c1=O (stereo unspecified)	> 100

Test system: RXF 393 renal
Assay: growth of human tumour cells (NCI), 48 h

SMILES	TGI [µM]
O=c1cc(-c2ccc(Oc3ccccc3)cc2)[nH]c2cc3c(cc12)OCO3	> 100
CC(C)=C[C@H]1CCC2(OCCO2)[C@]1(C)CO	> 100
O=C(/C=C/c1ccc2ccccc2c1)NCc1ccc(C(=O)NCCc2ccccc2)cc1	> 100
CCOC(=O)CC(C)C1(C(=O)OCC)CCCCC1=O (stereo unspecified)	> 100
Nc1nc(-[n+]2ccc(-c3ccncc3)cc2)nc(Cl)c1Cl	32.8
CC(C)OC(=O)/C=C/C(=O)O/C=C/[N+](=O)[O-]	44
COC(=O)CC1N=C(NC#N)N(CCc2c[nH]c3ccccc23)C1=O (stereo unspecified)	> 100
COC1=C(OC)C(=O)C(Cc2c(C)nc3sccn23)=C(C)C1=O	51.7
CC(C)=C[C@H]1CCC2(OCCO2)[C@]1(C)COCc1ccccc1	31.7
Nc1nc([O-])c2c(n1)[n+](C1OC(CO)C(O)C1O)cn2CCO (stereo unspecified)	> 100
CC(CC[C@@]1(C)C(=O)CCC2O[C@]21C)[C@H]1C[C@@H](c2ccoc2)OC1=O (stereo partly specified)	39.8
O=Cc1ccccc1COC(=O)c1cc(C(=O)OCc2ccccc2C=O)c(C(=O)OCc2ccccc2C=O)cc1C(=O)OCc1ccccc1C=O	> 100
CCOC1=NC(O)c2cccn2-c2sccc21 (stereo unspecified)	> 100
